The values below come from patent publication US20050186137A1, “Novelty-induced hypophagia-based assays for identifying agents to treat anxiety and depression” (priority 2003, published 2005).

The conditions of data set [1]: patients taking 20-80 mg/day Prozac; cited from earlier work.
Data set [2] relates to BALB/cJ, DBA/2J, C57BL/6J, and 129SvEv mice. Description: Modified forced swim test, strain comparison. The format is in vivo, mouse. Here is the method: For the strain comparison study, 36 male mice of four strains (BALB/cJ, DBA/2J, C57BL/6J, 129SvEv) were subjects for a total of 144 mice. Mice were tested in the OF beginning on day 30 or 33 of chronic fluoxetine treatment. Mice were tested for 15 min on three consecutive days to maximize activity levels. Mice were then tested in the modified FST on day 36 or 37.
Modified forced swim test: Mice were placed into 19 cm diameter plastic buckets which were 23 cm deep filled with 23°-25° C. water, and videotaped for six minutes. Only the last four minutes were scored for four measures: swimming, immobility, climbing, or other. The predominant behavior was recorded every 5 sec. For chronic and subchronic fluoxetine studies in BALB/cJ mice, mice were pre-exposed to the FST for 6 min 24 hours before test day to increase sensitivity for detecting antidepressant behavioral effects (Borsini et al., 1989).
Modified forced swim test: Two-factor ANOVAs with fluoxetine as a between-subjects factor and block (1 min intervals) as a within-subject factor were applied to three different measures: swimming, immobility, and climbing. Significant main effects of fluoxetine and interactions were resolved using post-hoc ANOVAs with adjusted p-values, and/or Newman-Keuls post-hoc tests.

A further data set concerns BALB/cJ mice. Description: Novelty induced hypophagia test. The format is in vivo, mouse. As to the method: For chronic fluoxetine studies in BALB/cJ mice, 60 male BALB/cJ mice were tested in the OF for 30 min on days 19 or 20 of chronic fluoxetine treatment. Mice were then pretested and tested in the modified FST on days 21 and 22, respectively. Animals were then allowed to adapt to being singly housed, and were trained for NIH on days 25-27. Home cage and novel cage testing occurred on days 28 and 29, respectively. Mice were then assessed for PPI on days 34 or 35.
Studies of subchronic fluoxetine were conducted using separate groups of 60 male BALB/cJ mice to prevent fluoxetine treatment from exceeding one week. One group was tested in the OF after one day of subchronic fluoxetine treatment. Mice were then pretested after 6 and tested after 7 days of subchronic fluoxetine treatment in the modified FST. A second group of BALB/cJ mice began fluoxetine treatment after being singly housed. They were then tested in the NIH test after 4 (home) and 5 (novel) days of subchronic fluoxetine treatment. A third group was tested for PPI after one or two days of subchronic fluoxetine treatment.
Novelty induced hypophagia test: Mice were singly housed several days before training began. For three consecutive days of training, mice were presented with diluted (1:3; milk:water) sweetened condensed milk (Carnation) in pipettes in the home cage for 30 min. Testing occurred on days 4 and 5 when mice were presented with the milk, and latency to drink and the volume consumed were recorded every five minutes for 30 min. On day 4, testing occurred in the home cage under dim lighting (approx. 50 lux). Mice were briefly removed from the cage to position pipettes, and testing began when mice were returned to their cages. On day 5, mice were placed into new cages of the same dimensions without shavings under bright lighting (approx. 1200 lux). White paper was placed under cages to enhance aversiveness on day 5.
Novelty induced hypophagia test: For latency scores, a maximum cut-off of 600 sec was used. Two-factor ANOVAs with home/novel cage condition as a within-subjects factor and fluoxetine as a between-subjects factor were applied to latency values. Main effects of fluoxetine or significant interactions of fluoxetine and home/novel cage condition were resolved using post-hoc ANOVAs with adjusted p-values and/or Newman-Keuls post-hoc tests. For consumption data, a three-factor ANOVA with block (5 min intervals) and home/novel cage condition as within-subjects factors and fluoxetine as a between-subjects factor was used to assess whether the novel cage was sufficiently anxiogenic to reduce consumption. Two-factor ANOVAs with block as a within-subjects factor and fluoxetine as a between-subjects factor were applied separately to consumption values for the home and the novel cage. Main effects of fluoxetine or significant interactions were resolved using post-hoc ANOVAs with adjusted p-values and/or Newman-Keuls post-hoc tests.

A short description of data set [3]: Serum fluoxetine levels by liquid chromatography with fluorescence detection. Format: in vivo, mouse. As to conditions: Balb/cJ mice. As to the method:
Fluoxetine was a generous gift from Lilly (Indianapolis, Ind.), and was delivered ad libitum in the drinking water. Fluoxetine was dissolved in tap water and changed weekly. For initial strain comparison studies, daily drinking was measured and the concentration of fluoxetine solutions were adjusted to deliver 0, 5, or 10 mg/kg/day of fluoxetine to each strain. For subchronic and chronic studies in BALB/cJ mice, 80-mg/L, 160 mg/L, and 240 mg/L fluoxetine was given, and drinking was recorded throughout the study. Fluoxetine plasma levels were determined by liquid chromatography with fluorescence detection (Suckow et al., 1992) for chronically treated Balb/cJ mice. 5-methoxy-3(1,2,3,6)tetrahydropyridin-4-yl-1H-indole (RU24969) was obtained from Tocris Cookson (Ellisville, Mo.), dissolved in saline, and delivered i.p. (5 ml/kg) with 26 gauge needles. Both drugs were protected from light.

[4] abbreviates: BALB/cJ mice, chronic 10 mg/kg/day, relative to 5 mg/kg/day and controls.
Setting [5] is: subchronic (4-5 days) fluoxetine.

Regarding `CNCCC(Oc1ccc(C(F)(F)F)cc1)c1ccccc1` (stereo not shown) [fluoxetine], the “range of plasma levels found in patients” value in data set [1] was 100 to 700 ng/mL. Moreover, in data set [2] (setting [4]), the immobility entry was “decreased immobility”. In addition, in data set [2] (setting [4]), the swimming entry is on record as “increased swimming”. In addition, the “sensitivity to chronic treatment in the modified FST across strains” value in data set [2] (BALB/cJ, DBA/2J, C57BL/6J, 129SvEv, chronic 5 or 10 mg/kg/day) is on record as “BALB/cJ was the only strain showing sensitivity”. In data set [2] (chronic fluoxetine 5 or 10 mg/kg/day), the climbing result is “No effects”. Also, in the data set on BALB/cJ mice (chronic 25 mg/kg/day), the “milk consumption in the home cage, first block (0-5 min)” value was “increased milk consumption compared to control”. Further, the “milk consumption in the novel cage, first block (0-5 min)” value with BALB/cJ mice (chronic 18 and 25 mg/kg/day) is “increased milk consumption compared to the 0 and 10 mg/kg/day doses”. For the same molecule, the “latency difference scores (novel minus home)” value in the data set with BALB/cJ mice (chronic 18 and 25 mg/kg/day vs control) is “control animals exhibited significantly larger difference scores”. For the same molecule, in the data set on BALB/cJ mice (chronic fluoxetine), the “latency to drink milk in the home cage” value is “reduced the latency to drink milk in the novel, but not the home cage”. Also, the “latency to drink in the novel cage” value in the data set with BALB/cJ mice (chronic fluoxetine, all three doses (10, 18, 25 mg/kg/day)) is on record as “reduced the latency to drink relative to control in a dose-related fashion”. Further, the “consumption in the home cage, post-hoc tests” value in the data set with BALB/cJ mice (subchronic (4-5 days) 25 mg/kg/day) is recorded as “only a trend for the 25 mg/kg/day dose to increase consumption relative to control”. For the same molecule, the latency to drink result with BALB/cJ mice (setting [5]) is on record as “no effect on any measure of latency”. Besides, in the data set on BALB/cJ mice (setting [5]), the milk consumption entry is “no effect”. Besides, the figures for the Serum fluoxetine levels in data set [3] (chronic fluoxetine 10 mg/kg/day (80 mg/L drinking water)), in data set [3] (chronic fluoxetine 18 mg/kg/day (160 mg/L drinking water)) and in data set [3] (chronic fluoxetine 25 mg/kg/day (240 mg/L drinking water)) were 170.3 ± 57.8 ng/mL, 563.4 ± 118.4 ng/mL and 1779.2 ± 364.9 ng/mL, respectively.
